Test results published in US6444617B1, “Fused-heterocycle dicarboxylic acid diamide derivatives or salts thereof, herbicide and usage thereof” (Nihon Nohyaku Co., Ltd., priority 1998, dated 2002).

What was measured:
Type in all cases: in vivo
[1] = test system: barnyard grass (Echinochloa crus-galli Beauv.); assay: Test Example 1: herbicidal effect on paddy field weeds before emergence; settings: Dosage 5 kg/ha
How it was run: (§1)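 Seeds of both weeds, still ungerminated, in soil pots held under paddy conditions received a set dose of test solution as soil treatment. After twenty-one days, control relative to untreated pots was calculated and rated on a scoring scale.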

[2] = test system: bulrush (Scirpus juncoides Roxb.); assay: as above; settings: Dosage 5 kg/ha
How it was run: as §1

[3] = test system: barnyard grass (Echinochloa crus-galli Beauv.); assay: Test Example 2: herbicidal effect on paddy field weeds after emergence; settings: Dosage 5 kg/ha; one-leaved stage; 21 days after treatment
How it was run: (§2)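 Weeds were sown in 1/10000 are pots of soil flooded to paddy conditions and grown to the one-leaf stage, then the soil was treated with a solution of compound at a predetermined dosage.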

[4] = test system: bulrush (Scirpus juncoides Roxb.); assay: as above; settings: Dosage 5 kg/ha; one-leaved stage; 21 days after treatment
How it was run: as §2

[5] = test system: monochoria (Monochoria vaginalis Presl); assay: as above; settings: Dosage 5 kg/ha; one-leaved stage; 21 days after treatment
How it was run: as §2

[6] = test system: barnyard grass (Echinochloa crus-galli Beauv.), Ec; assay: Test Example 3: herbicidal effect on upland weeds before emergence; settings: dosage 5 kg/ha
How it was run: (§3)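 Read-out is the weed-killing rate, scored fourteen days after a single spray application made before the weeds emerged. The spray was a liquid agent carrying the active compound at a prescribed dose.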

[7] = test system: bird's eye speedwell (Veronica persica Poir.), Vp; assay: as above; settings: dosage 5 kg/ha
How it was run: as §3

[8] = test system: cleavers (Galium aparine L.), Ga; assay: as above; settings: dosage 5 kg/ha
How it was run: as §3

[9] = test system: cocklebur (Xanthium strumarium L.), Xs; assay: as above; settings: dosage 5 kg/ha
How it was run: as §3

[10] = test system: forxtail grass (Alopecurus aequalis var. amurensis Ohwi), Am; assay: as above; settings: foxtail grass, dosage 5 kg/ha
How it was run: as §3

[11] = test system: velvetleaf (Abutilon theophtasti L.), At; assay: as above; settings: dosage 5 kg/ha
How it was run: as §3

soybean plant (So) = assay: Test Example 3: phytotoxicity to upland crop plants, treatment before emergence; settings: dosage 5 kg/ha
How it was run: (§4)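 A sprayed liquid agent with a prescribed concentration of active compound was applied pre-emergence. Visual phytotoxicity on soybean and wheat was rated by criterion two weeks (14 days) after application, concurrently with the herbicidal assessment.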

wheat (Wh) = assay: as above; settings: dosage 5 kg/ha
How it was run: as §4

[12] = test system: barnyard grass (Echinochloa crus-galli Beauv.), Ec; assay: Test Example 4: herbicidal effect on upland weeds after emergence; settings: dosage 5 kg/ha; sprayed after emergence; judged 14 days after treatment
How it was run: (§5)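 Soil vats; sown weeds + soybean/wheat; spray at leaf-stage, prescribed compound concentration; weed-kill rate judged day 14.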

[13] = test system: bird's eye speedwell (Veronica persica Poir.), Vp; assay: as above; settings: dosage 5 kg/ha; sprayed after emergence; judged 14 days after treatment
How it was run: as §5

[14] = test system: cleavers (Galium aparine L.), Ga; assay: as above; settings: dosage 5 kg/ha; sprayed after emergence; judged 14 days after treatment
How it was run: as §5

[15] = test system: cocklebur (Xanthium strumarium L.), Xs; assay: as above; settings: dosage 5 kg/ha; sprayed after emergence; judged 14 days after treatment
How it was run: as §5

[16] = test system: forxtail grass (Alopecurus aequalis var. amurensis Ohwi), Am; assay: as above; settings: dosage 5 kg/ha; sprayed after emergence; judged 14 days after treatment
How it was run: as §5

[17] = test system: velvetleaf (Abutilon theophtasti L.), At; assay: as above; settings: dosage 5 kg/ha; sprayed after emergence; judged 14 days after treatment
How it was run: as §5

soybean plant = assay: Test Example 4: phytotoxicity to upland crop plants, treatment after emergence; settings: dosage 5 kg/ha, sprayed after emergence, judged 14 days after treatment
How it was run: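 Scores of weed-killing rate, with crop phytotoxicity, come from inspection 14 days after plants in soil vats, grown to specified leaf stages, are sprayed with a formulation holding the compound at a prescribed concentration.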

wheat = assay: as above; settings: dosage 5 kg/ha, sprayed after emergence, judged 14 days after treatment
How it was run: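 Post-emergence foliar spray, compound at prescribed concentration, applied at defined leaf stages; weeds plus soybean/wheat grown in soil vats. Read-out: weed-killing rate and crop injury, 14 d post-treatment.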

Structure (SMILES): CCCNC(=O)c1nc2cnn(C)c2cc1C(=O)Nc1c(CC)ccc(Cl)c1CC [compound 1173]
- Pre-emergence treatment Barnyard grass (herbicidal effect) [1]: 5 (Weed-killing rate is 100%.)
- Pre-emergence treatment Bulrush (herbicidal effect) [2]: 5 (Weed-killing rate is 100%.)
- Post-emergence treatment Barnyard grass (herbicidal effect) [3]: 5 (Weed-killing rate is 100%.)
- Post-emergence treatment Bulrush (herbicidal effect) [4]: 5 (Weed-killing rate is 100%.)
- Post-emergence treatment Monochoria (herbicidal effect) [5]: 5 (Weed-killing rate is 100%.)
- Herbicidal effect Ec [6]: 5 (Weed-killing rate is 100%.)
- Herbicidal effect Vp [7]: 5 (Weed-killing rate is 100%.)
- Herbicidal effect Ga [8]: 5 (Weed-killing rate is 100%.)
- Herbicidal effect Xs [9]: 5 (Weed-killing rate is 100%.)
- Herbicidal effect Am [10]: 5 (Weed-killing rate is 100%.)
- Herbicidal effect At [11]: 5 (Weed-killing rate is 100%.)
- Phytotoxicity So (soybean plant (So)): 5 (Crop-killing rate is 100%.)
- Phytotoxicity Wh (wheat (Wh)): 5 (Crop-killing rate is 100%.)
- Herbicidal effect Ec [12]: 5 (Weed-killing rate is 100%.)
- Herbicidal effect Vp [13]: 5 (Weed-killing rate is 100%.)
- Herbicidal effect Ga [14]: 5 (Weed-killing rate is 100%.)
- Herbicidal effect Xs [15]: 5 (Weed-killing rate is 100%.)
- Herbicidal effect Am [16]: 5 (Weed-killing rate is 100%.)
- Herbicidal effect At [17]: 5 (Weed-killing rate is 100%.)
- Phytotoxicity So (soybean plant): 5 (Crop-killing rate is 100%.)
- Phytotoxicity Wh (wheat): 5 (Crop-killing rate is 100%.)

Structure (SMILES): CCCNC(=O)c1nc2c(C)nn(C)c2cc1C(=O)Nc1c(CC)ccc(Cl)c1CC [compound 1197]
- Pre-emergence treatment Barnyard grass (herbicidal effect) [1]: 5 (Weed-killing rate is 100%.)
- Pre-emergence treatment Bulrush (herbicidal effect) [2]: 5 (Weed-killing rate is 100%.)
- Post-emergence treatment Barnyard grass (herbicidal effect) [3]: 5 (Weed-killing rate is 100%.)
- Post-emergence treatment Bulrush (herbicidal effect) [4]: 5 (Weed-killing rate is 100%.)
- Post-emergence treatment Monochoria (herbicidal effect) [5]: 5 (Weed-killing rate is 100%.)
- Herbicidal effect Ec [6]: 5 (Weed-killing rate is 100%.)
- Herbicidal effect Vp [7]: 5 (Weed-killing rate is 100%.)
- Herbicidal effect Ga [8]: 5 (Weed-killing rate is 100%.)
- Herbicidal effect Xs [9]: 5 (Weed-killing rate is 100%.)
- Herbicidal effect Am [10]: 5 (Weed-killing rate is 100%.)
- Herbicidal effect At [11]: 5 (Weed-killing rate is 100%.)
- Phytotoxicity So (soybean plant (So)): 5 (Crop-killing rate is 100%.)
- Phytotoxicity Wh (wheat (Wh)): 5 (Crop-killing rate is 100%.)
- Herbicidal effect Ec [12]: 5 (Weed-killing rate is 100%.)
- Herbicidal effect Vp [13]: 5 (Weed-killing rate is 100%.)
- Herbicidal effect Ga [14]: 5 (Weed-killing rate is 100%.)
- Herbicidal effect Xs [15]: 5 (Weed-killing rate is 100%.)
- Herbicidal effect Am [16]: 5 (Weed-killing rate is 100%.)
- Herbicidal effect At [17]: 5 (Weed-killing rate is 100%.)
- Phytotoxicity So (soybean plant): 5 (Crop-killing rate is 100%.)
- Phytotoxicity Wh (wheat): 5 (Crop-killing rate is 100%.)

Structure (SMILES): CCCNC(=O)c1nc2ncn(C)c2cc1C(=O)Nc1c(CC)ccc(Cl)c1CC [compound 1209]
- Pre-emergence treatment Barnyard grass (herbicidal effect) [1]: 5 (Weed-killing rate is 100%.)
- Pre-emergence treatment Bulrush (herbicidal effect) [2]: 5 (Weed-killing rate is 100%.)
- Post-emergence treatment Barnyard grass (herbicidal effect) [3]: 5 (Weed-killing rate is 100%.)
- Post-emergence treatment Bulrush (herbicidal effect) [4]: 5 (Weed-killing rate is 100%.)
- Post-emergence treatment Monochoria (herbicidal effect) [5]: 5 (Weed-killing rate is 100%.)
- Herbicidal effect Ec [6]: 5 (Weed-killing rate is 100%.)
- Herbicidal effect Vp [7]: 5 (Weed-killing rate is 100%.)
- Herbicidal effect Ga [8]: 5 (Weed-killing rate is 100%.)
- Herbicidal effect Xs [9]: 5 (Weed-killing rate is 100%.)
- Herbicidal effect Am [10]: 5 (Weed-killing rate is 100%.)
- Herbicidal effect At [11]: 5 (Weed-killing rate is 100%.)
- Phytotoxicity So (soybean plant (So)): 5 (Crop-killing rate is 100%.)
- Phytotoxicity Wh (wheat (Wh)): 5 (Crop-killing rate is 100%.)
- Herbicidal effect Ec [12]: 5 (Weed-killing rate is 100%.)
- Herbicidal effect Vp [13]: 5 (Weed-killing rate is 100%.)
- Herbicidal effect Ga [14]: 5 (Weed-killing rate is 100%.)
- Herbicidal effect Xs [15]: 5 (Weed-killing rate is 100%.)
- Herbicidal effect Am [16]: 5 (Weed-killing rate is 100%.)
- Herbicidal effect At [17]: 5 (Weed-killing rate is 100%.)
- Phytotoxicity So (soybean plant): 5 (Crop-killing rate is 100%.)
- Phytotoxicity Wh (wheat): 5 (Crop-killing rate is 100%.)
